Test results published in article PMC10743086, “Immunofluorescence-Based Assay for High-Throughput Analysis of Multidrug Resistance Markers in Non-Small Cell Lung Carcinoma Patient-Derived Cells” (Diagnostics, 2023).

What was measured:
Type in all cases: cell-based, human
[1] = tested on: ABCC1 expression in cancer cells (CK8/18+); assay: Immunofluorescence assay of ABCC1 expression in patient-derived NSCLC cultures; details: 7 days
Method: (§1) Tissue samples were collected during surgery, and the NSCLC diagnosis, histological grade, stage, necrosis, and lymph node invasion status were determined by histopathological analysis. […] The surgical specimens were placed in a sterile tube containing antibiotic-antimycotic solution (Sigma-Aldrich Chemie GmbH, Taufkirchen, Germany) and immediately transported to the research laboratory for further processing.
(§2) Upon arrival, the tissue was manually chopped with a surgical blade in a Petri dish under sterile conditions. The samples were cut into 3–5 mm pieces and further dissociated using the Tumor Dissociation Kit (Miltenyi Biotec, Bergisch Gladbach, Germany). The Tumor Dissociation Kit was used to dissociate the cells from the tumor tissue according to the manufacturer’s instructions. The samples were incubated in a 37 °C orbital shaker (KS 4000 ic control, IKA, Königswinter, Germany) at 300 rpm for 90 min. After incubation, the dissociated tissue was placed in DMEM/Ham’s F12 (1:3 ratio) growth medium supplemented with 5% fetal bovine serum (Corning, NY, USA), antibiotic-antimycotic solution, 4 µg/mL hydrocortisone (Sigma-Aldrich Chemie GmbH, Taufkirchen, Germany), 1 µg/mL insulin (Sigma-Aldrich Chemie GmbH, Taufkirchen, Germany), 10 ng/mL epidermal growth factor (BioLegend, San Diego, CA, USA), and 24 µg/mL adenine (Sigma-Aldrich Chemie GmbH, Taufkirchen, Germany). The DMEM and Ham’s F12 growth media were purchased from Sigma-Aldrich Chemie GmbH (Taufkirchen, Germany).
(§3) The dissociated tissue was cultured in T-25 cell culture flasks until cell attachment was observed before the medium was replaced. If no cell attachment was achieved within 7 days, the sample was discarded. Successful patient-derived cultures were maintained at 37 °C in a humidified atmosphere with 5% CO2 and grown to confluence before undergoing further experiments. […] Partial trypsinization was performed by detaching the fibroblast-like cells with 1 mL of 0.05% trypsin for 1 min at 37 °C, followed by 2 min at room temperature (RT).
(§4) Vinorelbine and pemetrexed were purchased from Selleckchem (Houston, TX, USA). Carboplatin, cisplatin, docetaxel, etoposide, gemcitabine, gefitinib, and paclitaxel were purchased from Sigma-Aldrich Chemie GmbH (Taufkirchen, Germany). The cisplatin, carboplatin, and gemcitabine were dissolved in sterile water, while the etoposide, docetaxel, vinorelbine, paclitaxel, gefitinib, and pemetrexed were dissolved in DMSO and stored at −20 °C. Before treatment, all the stock solutions were freshly diluted in sterile water.
(§5) The primary cells were seeded in black, clear bottom 384-well cell culture microplates (Thermo Fisher Scientific, Waltham, MA, USA) in 50 µL of cell growth medium at a density of 1000 cells per well. The compounds were administered 72 h after seeding. The treatment lasted 7 days.
(§6) The immunofluorescence assay for the quantification of MDR markers was optimized to distinguish cancer cells from stromal cells using a cytokeratin 8/18 (CK8/18) antibody cocktail. The cells were fixed with 4% paraformaldehyde for 20 min at RT and washed three times with PBS using the Wellwash Versa microplate washer (Thermo Fisher Scientific, Waltham, MA, USA). The cells were then blocked with 2% bovine serum albumin (BSA) in PBS for 1 h at RT. […] Co-immunostaining with antibodies against MDR markers was performed to detect the presence of ABCB1, ABCC1, and ABCG2 in both the cancer and stromal cells. […] The secondary antibodies were incubated with the cells at RT for 2 h in the dark. […] Finally, the cells were washed three times with PBS and stored at 4 °C in the dark before imaging.

[2] = tested on: ABCB1 expression in cancer cells (CK8/18+); assay: Immunofluorescence assay of ABCB1 expression in patient-derived NSCLC cultures; details: 7 days
Method: as §1, §2, §3, §4, §5, §6

NCI-H460/R cells = assay: Cytotoxicity by immunofluorescence cell scoring (cell counts), multidrug-resistant NSCLC cell line; details: Homo sapiens, 24 h treatment
Description: Human non-small cell lung carcinoma cells (NCI-H460) were purchased from the American Type Culture Collection (Rockville, MD, USA), and normal embryonic lung fibroblasts (MRC-5) were purchased from the European Collection of Authenticated Cell Cultures (Salisbury, UK). Multidrug-resistant NCI-H460/R cells overexpressing ABCB1 were selected from the NCI-H460 cells after selective pressure with doxorubicin [21]. All the cell lines were maintained in MEM medium (Sigma-Aldrich Chemie GmbH, Taufkirchen, Germany) supplemented with 10% FBS, 2 mM L-glutamine, and antibiotic-antimycotic solution. All the cell lines were maintained at 37 °C in a humidified atmosphere with 5% CO2.
as §4
(§7) The compounds were administered 48 h after seeding. The treatment lasted 24 h.
as §6
(§8) The fluorescently labeled cells were imaged using the ImageXpress Pico Automated Cell Imaging System (Molecular Devices, San Jose, CA, USA) with a 4x objective after determining the appropriate exposure time for each illumination filter. Analysis of the obtained images was performed using CellReporterXpress software v. 2.8.2.669 (Molecular Devices). The cytotoxicity of the compounds was determined using the Cell Scoring Analysis Protocol. […] Expression of MDR markers was determined using the Multi-Wavelength Cell Scoring Analysis Protocol.

[3] = tested on: ABCB1 expression in NCI-H460/R cells; assay: Immunofluorescence assay of MDR marker ABCB1 expression; details: five concentrations, 24 h
Method: as §4, §7, §6, §8

[4] = tested on: ABCB1 expression in NCI-H460 cells; assay: as above; details: five concentrations, 24 h
Method: as §4, §7, §6, §8

[5] = tested on: ABCB1 expression in MRC-5 cells; assay: as above; details: five concentrations, 24 h
Method: as §4, §7, §6, §8

MRC-5 cells = assay: Cytotoxicity by immunofluorescence cell scoring (cell counts), normal fibroblasts; details: Homo sapiens, 24 h treatment
Method: as §4, §7, §6, §8

[6] = tested on: ABCG2 expression in cancer cells (CK8/18+); assay: Immunofluorescence assay of ABCG2 expression in patient-derived NSCLC cultures; details: 7 days
Method: as §1, §2, §3, §4, §5, §6

[7] = tested on: Non-cancer cells (CK8/18-) of patient-derived NSCLC cultures; assay: Cytotoxicity in patient-derived NSCLC cultures, non-cancer cells; details: Homo sapiens, 168 h, 7 days treatment
Method: as §1, §2, §3, §4, §5, §6

[8] = culture TR58, cancer cells (CK8/18+)
[9] = culture TR64, cancer cells (CK8/18+)
[10] = culture TR65, cancer cells (CK8/18+)
[11] = culture TR84, cancer cells (CK8/18+)
[12] = culture TR87, cancer cells (CK8/18+)
[13] = NCI-H460/R (co-culture with MRC-5)
[14] = NCI-H460 (co-culture with MRC-5)
[15] = MRC-5 (co-culture with NCI-H460)
[16] = MRC-5 (co-culture with NCI-H460/R)
[17] = MRC5, 24 h, MRC-5 (co-culture with NCI-H460)
[18] = culture TR58, non-cancer cells (CK8/18-)
[19] = culture TR64, non-cancer cells (CK8/18-)
[20] = culture TR65, non-cancer cells (CK8/18-)
[21] = culture TR84, non-cancer cells (CK8/18-)
[22] = culture TR87, non-cancer cells (CK8/18-)

Row | Compound | ABCC1 expression [1, 8] | ABCC1 expression [1, 9] | ABCC1 expression [1, 10] | ABCC1 expression [1, 11] | ABCC1 expression [1, 12] | ABCB1 Expression [2, 8] | ABCB1 Expression [2, 9] | ABCB1 Expression [2, 10] | ABCB1 Expression [2, 11] | ABCB1 Expression [2, 12] | IC50 (NCI-H460/R cells; [13]) [µM] | IC50 (NCI-H460/R cells; NCI-H460/R monoculture) [µM] | ABCB1 Expression [3, 13] | ABCB1 Expression ([3]; NCI-H460/R monoculture) | ABCB1 Expression [4, 14] | ABCB1 Expression ([4]; NCI-H460 monoculture) | ABCB1 Expression [5, 15] | ABCB1 Expression [5, 16] | ABCB1 Expression ([5]; MRC-5 monoculture) | IC50 (MRC-5 cells; [17]) [µM] | further results
1 | CC(=O)O[C@@]12CO[C@@H]1C[C@H](O)[C@@]1(C)C(=O)[C@H](O)C3=C(C)[C@@H](OC(=O)[C@H](O)[C@@H](NC(=O)OC(C)(C)C)c4ccccc4)C[C@@](O)([C@@H](OC(=O)c4ccccc4)[C@H]21)C3(C)C [Docetaxel, docetaxel] | no change | increase (An increase in ABCB1, ABCC1, or ABCG2 expression of at least 20% at a minimum of one concentration is shown in the table.) | increase (An increase in ABCB1, ABCC1, or ABCG2 expression of at least 20% at a minimum of one concentration is shown in the table.) | increase (An increase in ABCB1, ABCC1, or ABCG2 expression of at least 20% at a minimum of one concentration is shown in the table.) | increase (An increase in ABCB1, ABCC1, or ABCG2 expression of at least 20% at a minimum of one concentration is shown in the table.) | no change | increase (An increase in ABCB1, ABCC1, or ABCG2 expression of at least 20% at a minimum of one concentration is shown in the table.) | no change | increase (An increase in ABCB1, ABCC1, or ABCG2 expression of at least 20% at a minimum of one concentration is shown in the table.) | increase (An increase in ABCB1, ABCC1, or ABCG2 expression of at least 20% at a minimum of one concentration is shown in the table.) | 0.801 | 0.704 | no change | no change | increase (An increase in ABCB1 expression of at least 20% at a minimum of one concentration is shown in the table.) | increase (An increase in ABCB1 expression of at least 20% at a minimum of one concentration is shown in the table.) | no change | no change | no change | > 5 | IC50 (MRC-5 cells; MRC5, 24 h, MRC-5 monoculture): > 5 µM; IC50 (MRC-5 cells; MRC5, MRC-5 (co-culture with NCI-H460/R)): > 5 µM; ABCG2 expression [6, 8]: increase (An increase in ABCB1, ABCC1, or ABCG2 expression of at least 20% at a minimum of one concentration is shown in the table.); ABCG2 expression [6, 9]: increase (An increase in ABCB1, ABCC1, or ABCG2 expression of at least 20% at a minimum of one concentration is shown in the table.); ABCG2 expression [6, 10]: no change; ABCG2 expression [6, 11]: increase (An increase in ABCB1, ABCC1, or ABCG2 expression of at least 20% at a minimum of one concentration is shown in the table.); ABCG2 expression [6, 12]: increase (An increase in ABCB1, ABCC1, or ABCG2 expression of at least 20% at a minimum of one concentration is shown in the table.); IC50 [7, 18]: 1.59 µM; IC50 [7, 19]: 2.73 µM; IC50 [7, 20]: 0.461 µM; IC50 [7, 21]: 0.182 µM; IC50 [7, 22]: 3.05 µM
2 | COc1cc([C@@H]2c3cc4c(cc3[C@@H](O[C@@H]3O[C@@H]5CO[C@@H](C)O[C@H]5[C@H](O)[C@H]3O)[C@H]3COC(=O)[C@H]23)OCO4)cc(OC)c1O [Etoposide, etoposide] | no change | increase (An increase in ABCB1, ABCC1, or ABCG2 expression of at least 20% at a minimum of one concentration is shown in the table.) | increase (An increase in ABCB1, ABCC1, or ABCG2 expression of at least 20% at a minimum of one concentration is shown in the table.) | increase (An increase in ABCB1, ABCC1, or ABCG2 expression of at least 20% at a minimum of one concentration is shown in the table.) | increase (An increase in ABCB1, ABCC1, or ABCG2 expression of at least 20% at a minimum of one concentration is shown in the table.) | no change | increase (An increase in ABCB1, ABCC1, or ABCG2 expression of at least 20% at a minimum of one concentration is shown in the table.) | increase (An increase in ABCB1, ABCC1, or ABCG2 expression of at least 20% at a minimum of one concentration is shown in the table.) | increase (An increase in ABCB1, ABCC1, or ABCG2 expression of at least 20% at a minimum of one concentration is shown in the table.) | increase (An increase in ABCB1, ABCC1, or ABCG2 expression of at least 20% at a minimum of one concentration is shown in the table.) | 7.5 | 7.92 | no change | no change | increase (An increase in ABCB1 expression of at least 20% at a minimum of one concentration is shown in the table.) | increase (An increase in ABCB1 expression of at least 20% at a minimum of one concentration is shown in the table.) | no change | no change | no change | > 30 | IC50 (MRC-5 cells; MRC5, 24 h, MRC-5 (co-culture with NCI-H460/R)): > 30 µM; IC50 (MRC-5 cells; MRC5, 24 h, MRC-5 monoculture): > 30 µM; ABCG2 expression [6, 8]: no change; ABCG2 expression [6, 9]: increase (An increase in ABCB1, ABCC1, or ABCG2 expression of at least 20% at a minimum of one concentration is shown in the table.); ABCG2 expression [6, 10]: increase (An increase in ABCB1, ABCC1, or ABCG2 expression of at least 20% at a minimum of one concentration is shown in the table.); ABCG2 expression [6, 11]: increase (An increase in ABCB1, ABCC1, or ABCG2 expression of at least 20% at a minimum of one concentration is shown in the table.); ABCG2 expression [6, 12]: increase (An increase in ABCB1, ABCC1, or ABCG2 expression of at least 20% at a minimum of one concentration is shown in the table.); IC50 [7, 18]: 6.49 µM; IC50 [7, 19]: 18.1 µM; IC50 [7, 20]: 2.08 µM; IC50 [7, 21]: 1.01 µM; IC50 [7, 22]: 10.2 µM
